In patent US8476197B2, “Aminopropenoates as fungicides” (priority 2009, dated 2013):
Read-outs that look alike come from different tables or passages of the source. Marks after values point to notes of the source that are not given here.

Tests used:
Myzus persicae = conditions: spray on Chinese cabbage leaf-disks, 500 g/ha, after 6 days
Description: Chinese cabbage (Brassica pekinesis) leaf-disks infected with all instars of the green peach aphid (Myzus persicae), are sprayed with a preparation of the active ingredient at the desired concentration. After 6 days mortality in % is determined. 100% means that all aphids have been killed; 0% means that none of the aphids have been killed.

Phaedon cochleariae = conditions: spray on Chinese cabbage leaf-disks, 500 g/ha, after 7 days
Description: • Solvent: 78.0 parts by weight of acetone • 1.5 parts by weight of dimethylformamide • Emulsifier: 0.5 parts by weight of alkylaryl polyglycolether
Chinese cabbage (Brassica pekinesis) leaf-disks are sprayed with a preparation of the active ingredient of the desired concentration. Once dry, the leaf disks are infested with mustard beetle larvae (Phaedon cochleariae). After 7 days mortality in % is determined. 100% means that all beetle larvae have been killed and 0% means that none of the beetle larvae have been killed.

Boophilus microplus = Boophilus microplus test (injection); assay type: in vivo; conditions: injection into adult engorged female ticks, 20 μg/animal, after 7 days
Description: Boophilus microplus—Test Injection)
• Solvent: dimethyl sulfoxide
Five adult engorged female ticks (Boophilus microplus) are injected with 1 μl compound solution into the abdomen. Ticks are transferred into replica plates and incubated in a climate chamber for a period of time. Egg deposition of fertile eggs is monitored. […] 100% means that all eggs are infertile; 0% means that all eggs are fertile.

[1] = LogP, preparation examples; HPLC method ([a], [b] or [c]) not stated

Compound | activity (mortality) (Phaedon cochleariae) | Log P (pH 7.5) | chromatographic logP [1] | other results
CNC(=O)C(C#N)=C(NC(C)C1CC1)c1cccnc1Cl (mixture of isomers) [Compound 1244] |  |  |  | activity (mortality) (Myzus persicae): 100%
CCOC(=O)C(C#N)=C(NC(C)c1nccs1)c1ncc(C(F)(F)F)cc1Cl (racemic) [Compound 40] | 83% |  |  | Log P (pH 2.7): 3.37^[a]
CCOC(=O)C(C#N)=C(NC(C)c1nccs1)c1cccnc1SC (racemic) [Compound 62] |  | 2.73 |  | activity (mortality) (Myzus persicae): 100%
CCOC(=O)C(C#N)=C(NC1CCCNC1=O)c1cccnc1Cl (racemic) [Compound 239] |  | 1.6 |  | Log P (pH 2.3): 1.67; activity (mortality; 100% means all eggs infertile) (Boophilus microplus): 100%
CSCC(C)NC(=C(C#N)C(=O)OC(C)C)c1cccnc1Cl (stereo not drawn) [Compound 597] |  | 3.03 |  | activity (mortality) (Myzus persicae): 90%
CCOC(=O)C(C#N)=C(NC(C)C(=O)NC)c1ncc(C(F)(F)F)cc1Cl (stereo not drawn) [Compound 600] |  |  |  | Log P (pH 2.7): 2.41^[a]; activity (mortality) (Myzus persicae): 100%
CC(C)NC(=O)C(C#N)=C(NC(C)C(C)C)c1cccnc1Cl (stereo not drawn) [Compound 957] | 100% | 3.39 |  | Log P (pH 2.3): 3.37
C#CC(C)(C)NC(=C(C#N)C(=O)OC)c1cccnc1Cl [Compound 1028] | 83% |  |  | Log P (pH 2.7): 2.23^[a]
CCOC(=O)C(C#N)=C(NC(C)C(C)C)c1cccnc1-c1ccc(Cl)c(Cl)c1 (stereo not drawn) [Compound 1475] | 100% | 4.56^[c]; 4.56^[b] |  | Log P (pH 2.3): 4.56^[c]; 4.56^[b]
CCOC(=O)C(C#N)=C(NC(C)C(C)C)c1cccnc1-c1cncnc1 (stereo not drawn) [Compound 1591] | 100% | 2.42 |  | 
CCOC(=O)/C(C#N)=C(\NCC(c1ccccc1)C(C)C)c1cccnc1Cl (stereo not drawn) [ethyl (2Z)-3-(2-chloropyridin-3-yl)-2-cyano-3-[(3-methyl-2-phenylbutyl)amino]acrylate] |  |  | 4.21 | 
CCOC(=O)/C(C#N)=C(\NCCc1ncc(C(F)(F)F)cc1Cl)c1cccnc1Cl [ethyl (2Z)-3-(2-chloropyridin-3-yl)-3-({2-[3-chloro-5-(trifluoromethyl)pyridin-2-yl]ethyl}amino)-2-cyanoacrylate] |  |  | 3.57 | 
CCOC(=O)/C(C#N)=C(\NC(C)c1ccc(Cl)nc1)c1cccnc1Cl (stereo not drawn) [ethyl (2Z)-3-(2-chloropyridin-3-yl)-3-{[1-(6-chloropyridin-3-yl)ethyl]amino}-2-cyanoacrylate] |  |  | 2.8 | 
CCOC(=O)/C(C#N)=C(\N[C@H](C)C(=O)NC)c1scc(C)c1Cl [ethyl (2Z)-3-(3-chloro-4-methyl-2-thienyl)-2-cyano-3-{[(2R)-1-(methylamino)-1-oxopropan-2-yl]amino}acrylate] |  |  | 3.61 | 
CCN/C(=C(/C#N)C(=O)OCC)c1cccnc1-c1ccc(Cl)cc1 [ethyl (2Z)-3-[2-(4-chlorophenyl)pyridin-3-yl]-2-cyano-3-(ethylamino)acrylate] |  |  | 2.96 | 
